Counter-ions that a name gives are not always drawn.
Tests used:
rat TAAR1 = rat TAAR1 (Rattus norvegicus (Rat), UniProt Q923Y9); assay: Radioligand binding assay on rat TAAR1; conditions: for Ki: read-out: Ki (μM) rat, rat TAAR1, membranes of HEK-293 cells, radioligand displacement;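 as to all read-outs here: stably transfected HEK293 cell membranes with a tritiated radioligand, 1 h incubation at 4 °C, nonspecific binding taken as binding with 10 µM unlabeled ligand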
Procedure: (§1) For the generation of stably transfected cell lines HEK293 cells were transfected with the pIRESneo2 expression plasmids containing the TAAR coding sequences (described above) with Lipofectamine 2000 (Invitrogen) according to the instructions of the manufacturer, and 24 hrs post transfection the culture medium was supplemented with 1 mg/ml G418 (Sigma, Buchs, Switzerland). […] Radioligand Binding Assay on Rat TAAR1 Membrane Preparation and Radioligand Binding. […] Cells were released from culture flasks using trypsin/EDTA, harvested, washed twice with ice-cold PBS (without Ca^2+ and Mg^2+), pelleted at 1,000 rpm for 5 min at 4° C., frozen and stored at −80° C. Frozen pellets were suspended in 20 ml HEPES-NaOH (20 mM, pH 7.4) containing 10 mM EDTA and homogenized with a Polytron (PT 6000, Kinematica) at 14,000 rpm for 20 s. The homogenate was centrifuged at 48,000×g for 30 min at 4° C. Subsequently, the supernatant was removed and discarded, and the pellet resuspended in 20 ml HEPES-NaOH (20 mM, pH 7.4) containing 0.1 mM EDTA using the Polytron (20 s at 14,000 rpm). This procedure was repeated and the final pellet resuspended in HEPES-NaOH containing 0.1 mM EDTA and homogenized using the Polytron. Typically, aliquots of 2 ml membrane portions were stored at −80° C. With each new membrane batch the dissociation constant (Kd) was determined via a saturation curve. […] Nonspecific binding was defined as the amount of ^3[H]-(S)-4-[(ethyl-phenyl-amino)-methyl]-4,5-dihydro-oxazol-2-ylamine bound in the presence of 10 μM unlabeled ligand. All compounds were tested at a broad range of concentrations (10 pM to 10 μM) in duplicates. […] The 96 deep well plates were incubated for 1 hr at 4° C. Incubations were terminated by rapid filtration through Unifilter-96 plates (Packard Instrument Company) and glass filters GF/C (Perkin Elmer) presoaked for 1 hr in polyethylenimine (0.3%) and washed 3 times with 1 ml of cold binding buffer. After addition of 45 μl of Microscint 40 (PerkinElmer) the Unifilter-96 plate was sealed and after 1 hr the radioactivity counted using a TopCount Microplate Scintillation Counter (Packard Instrument Company). Radioligand Binding Assay on Mouse TAAR1 Membrane Preparation and Radioligand Binding. […] Cells were released from culture flasks using trypsin/EDTA, harvested, washed twice with ice-cold PBS (without Ca^2+ and Mg^2+), pelleted at 1,000 rpm for 5 min at 4° C., frozen and stored at −80° C. Frozen pellets were suspended in 20 ml HEPES-NaOH (20 mM, pH 7.4) containing 10 mM EDTA and homogenized with a Polytron (PT 6000, Kinematica) at 14,000 rpm for 20 s. The homogenate was centrifuged at 48,000×g for 30 min at 4° C. Subsequently, the supernatant was removed and discarded, and the pellet resuspended in 20 ml HEPES-NaOH (20 mM, pH 7.4) containing 0.1 mM EDTA using the Polytron (20 s at 14,000 rpm). This procedure was repeated and the final pellet resuspended in HEPES-NaOH containing 0.1 mM EDTA and homogenized using the Polytron. Typically, aliquots of 2 ml membrane portions were stored at −80° C. With each new membrane batch the dissociation constant (Kd) was determined via a saturation curve.

mouse TAAR1 = mouse TAAR1 (Mus musculus (Mouse), UniProt Q923Y8); assay: Radioligand binding assay on mouse TAAR1; conditions: for Ki: read-out: Ki (μM) mouse, mouse TAAR1, membranes of HEK-293 cells, radioligand displacement
Sequence of mouse TAAR1 (Q923Y8 whole entry): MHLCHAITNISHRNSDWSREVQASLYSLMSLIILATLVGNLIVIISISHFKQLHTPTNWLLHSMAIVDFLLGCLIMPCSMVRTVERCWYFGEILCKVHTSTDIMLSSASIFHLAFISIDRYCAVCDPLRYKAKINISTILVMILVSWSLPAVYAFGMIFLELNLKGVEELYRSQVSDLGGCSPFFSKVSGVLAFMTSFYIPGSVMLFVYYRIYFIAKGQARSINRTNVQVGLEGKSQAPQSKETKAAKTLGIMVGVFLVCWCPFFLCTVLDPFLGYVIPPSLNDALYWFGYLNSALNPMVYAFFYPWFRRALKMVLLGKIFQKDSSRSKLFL
Procedure: as §1

Sequence of rat TAAR1 (Q923Y9 whole entry): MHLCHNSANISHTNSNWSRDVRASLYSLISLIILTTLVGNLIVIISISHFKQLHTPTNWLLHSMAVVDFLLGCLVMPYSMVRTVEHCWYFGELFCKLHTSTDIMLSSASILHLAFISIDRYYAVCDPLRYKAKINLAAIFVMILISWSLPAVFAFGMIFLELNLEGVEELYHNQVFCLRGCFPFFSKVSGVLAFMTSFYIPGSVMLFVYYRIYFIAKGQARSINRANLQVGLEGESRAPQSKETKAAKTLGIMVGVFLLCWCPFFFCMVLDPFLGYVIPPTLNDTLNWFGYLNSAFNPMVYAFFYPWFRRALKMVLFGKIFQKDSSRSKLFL

## Cc1nn(-c2ccc(OC(F)F)cc2)cc1C(=O)Nc1ccc([C@H]2CNCCO2)cc1 [Example 32, (S)-1-(4-(difluoromethoxy)phenyl)-3-methyl-N-(4-(morpholin-2-yl)phenyl)-1H-pyrazole-4-carboxamide hydrochloride]
Rat TAAR1
  Ki: 0.0002 µM
Mouse TAAR1
  Ki: 0.0008 µM

## O=C(Nc1ccc([C@H]2CNCCO2)cc1)c1cnn(-c2cncc(Cl)n2)c1 [Example 33, (S)-1-(6-chloropyrazin-2-yl)-N-(4-(morpholin-2-yl)phenyl)-1H-pyrazole-4-carboxamide hydrochloride]
Rat TAAR1
  Ki: 0.0068 µM
Mouse TAAR1
  Ki: 0.0032 µM

## O=C(Nc1ccc([C@H]2CNCCO2)cc1)c1cnn(-c2ccnc(C(F)(F)F)n2)c1 [Example 34, (S)—N-(4-(morpholin-2-yl)phenyl)-1-(2-(trifluoromethyl)pyrimidin-4-yl)-1H-pyrazole-4-carboxamide hydrochloride]
Rat TAAR1
  Ki: 0.0035 µM
Mouse TAAR1
  Ki: 0.0054 µM

## Cc1c(C(=O)Nc2ccc([C@H]3CNCCO3)cc2)cnn1-c1ccc(C#N)cc1 [Example 35, (S)-1-(4-cyanophenyl)-5-methyl-N-(4-(morpholin-2-yl)phenyl)-1H-pyrazole-4-carboxamide hydrochloride]
Rat TAAR1
  Ki: 0.167 µM
Mouse TAAR1
  Ki: 0.0601 µM

## O=C(Nc1ccc([C@H]2CNCCO2)cc1)c1cnn(-c2ccnc(Cl)n2)c1 [Example 36, (S)-1-(2-chloropyrimidin-4-yl)-N-(4-(morpholin-2-yl)phenyl)-1H-pyrazole-4-carboxamide hydrochloride]
Rat TAAR1
  Ki: 0.0054 µM
Mouse TAAR1
  Ki: 0.0086 µM

## O=C(Nc1ccc([C@H]2CNCCO2)cc1)c1cnn(-c2ncc(C(F)(F)F)cn2)c1 [Example 37, (S)—N-(4-(morpholin-2-yl)phenyl)-1-(5-(trifluoromethyl)pyrimidin-2-yl)-1H-pyrazole-4-carboxamide hydrochloride]
Rat TAAR1
  Ki: 0.0931 µM
Mouse TAAR1
  Ki: 0.0615 µM

## O=C(Nc1ccc([C@H]2CNCCO2)cc1)c1cnn(-c2cncc(C(F)(F)F)n2)c1 [Example 38, (S)—N-(4-(morpholin-2-yl)phenyl)-1-(6-(trifluoromethyl)pyrazin-2-yl)-1H-pyrazole-4-carboxamide hydrochloride]
Rat TAAR1
  Ki: 0.0059 µM
Mouse TAAR1
  Ki: 0.0075 µM

## Cc1cncc(-n2cc(C(=O)Nc3ccc([C@H]4CNCCO4)cc3)cn2)n1 [Example 39, (S)-1-(6-methylpyrazin-2-yl)-N-(4-(morpholin-2-yl)phenyl)-1H-pyrazole-4-carboxamide hydrochloride]
Rat TAAR1
  Ki: 0.0435 µM
Mouse TAAR1
  Ki: 0.0088 µM

## Cc1cnc(-n2cc(C(=O)Nc3ccc([C@H]4CNCCO4)cc3)cn2)cn1 [Example 40, (S)-1-(5-methylpyrazin-2-yl)-N-(4-(morpholin-2-yl)phenyl)-1H-pyrazole-4-carboxamide hydrochloride]
Rat TAAR1
  Ki: 0.126 µM
Mouse TAAR1
  Ki: 0.0119 µM

## O=C(Nc1ccc([C@H]2CNCCO2)cc1)c1cnn(-c2nccnc2Cl)c1 [Example 41, (S)-1-(3-chloropyrazin-2-yl)-N-(4-(morpholin-2-yl)phenyl)-1H-pyrazole-4-carboxamide hydrochloride]
Rat TAAR1
  Ki: 0.0814 µM
Mouse TAAR1
  Ki: 0.0275 µM

## N#Cc1cnc(-n2cc(C(=O)Nc3ccc([C@H]4CNCCO4)cc3)cn2)cn1 [Example 42, (S)-1-(5-cyanopyrazin-2-yl)-N-(4-(morpholin-2-yl)phenyl)-1H-pyrazole-4-carboxamide hydrochloride]
Rat TAAR1
  Ki: 0.0326 µM
Mouse TAAR1
  Ki: 0.0199 µM

## Cc1ccnc(-n2cc(C(=O)Nc3ccc([C@H]4CNCCO4)cc3)cn2)n1 [Example 43, (S)-1-(4-methylpyrimidin-2-yl)-N-(4-(morpholin-2-yl)phenyl)-1H-pyrazole-4-carboxamide hydrochloride]
Rat TAAR1
  Ki: 0.315 µM
Mouse TAAR1
  Ki: 0.0554 µM

## O=C(Nc1ccc([C@H]2CNCCO2)cc1)c1cnn(-c2cc(C(F)(F)F)ncn2)c1 [Example 44, (S)—N-(4-(morpholin-2-yl)phenyl)-1-(6-(trifluoromethyl)pyrimidin-4-yl)-1H-pyrazole-4-carboxamide hydrochloride]
Rat TAAR1
  Ki: 0.0041 µM
Mouse TAAR1
  Ki: 0.0099 µM

## O=C(Nc1ccc([C@H]2CNCCO2)cc1)c1cnn(-c2cnc(C(F)(F)F)nc2)c1 [Example 45, (S)—N-(4-(morpholin-2-yl)phenyl)-1-(2-(trifluoromethyl)pyrimidin-5-yl)-1H-pyrazole-4-carboxamide hydrochloride]
Rat TAAR1
  Ki: 0.0059 µM
Mouse TAAR1
  Ki: 0.0214 µM

## O=C(Nc1ccc([C@H]2CNCCO2)cc1)c1cnn(-c2cnc(Cl)cn2)c1 [Example 46, (S)-1-(5-chloropyrazin-2-yl)-N-(4-(morpholin-2-yl)phenyl)-1H-pyrazole-4-carboxamide hydrochloride]
Rat TAAR1
  Ki: 0.0056 µM
Mouse TAAR1
  Ki: 0.0031 µM

## N#Cc1cncc(-n2cc(C(=O)Nc3ccc([C@H]4CNCCO4)cc3)cn2)n1 [Example 47, (S)-1-(6-cyanopyrazin-2-yl)-N-(4-(morpholin-2-yl)phenyl)-1H-pyrazole-4-carboxamide hydrochloride]
Rat TAAR1
  Ki: 0.0345 µM
Mouse TAAR1
  Ki: 0.0195 µM

## O=C(Nc1ccc([C@H]2CNCCO2)cc1)c1cnn(-c2nccc(C(F)(F)F)n2)c1 [Example 48, (S)—N-(4-(morpholin-2-yl)phenyl)-1-(4-(trifluoromethyl)pyrimidin-2-yl)-1H-pyrazole-4-carboxamide hydrochloride]
Rat TAAR1
  Ki: 0.149 µM
Mouse TAAR1
  Ki: 0.0531 µM

## N#Cc1ccc(-n2cc(C(=O)Nc3ccc([C@@H]4CNCCO4)cc3)cn2)c(F)c1 [Example 49, (R)-1-(4-cyano-2-fluorophenyl)-N-(4-(morpholin-2-yl)phenyl)-1H-pyrazole-4-carboxamide hydrochloride]
Rat TAAR1
  Ki: 0.0033 µM
Mouse TAAR1
  Ki: 0.0049 µM

## O=C(Nc1ccc([C@H]2CNCCO2)cc1)c1cnn(-c2ccnc(C(F)(F)F)c2)c1 [Example 50, (S)—N-(4-(morpholin-2-yl)phenyl)-1-(2-(trifluoromethyl)pyridin-4-yl)-1H-pyrazole-4-carboxamide hydrochloride]
Rat TAAR1
  Ki: 0.0038 µM
Mouse TAAR1
  Ki: 0.0077 µM

## O=C(Nc1ccc([C@H]2CNCCO2)cc1)c1cnn(-c2ccc(C(F)(F)F)nc2)c1 [Example 51, (S)—N-(4-(morpholin-2-yl)phenyl)-1-(6-(trifluoromethyl)pyridin-3-yl)-1H-pyrazole-4-carboxamide hydrochloride]
Rat TAAR1
  Ki: 0.0048 µM
Mouse TAAR1
  Ki: 0.0064 µM

## N#Cc1nccnc1-n1cc(C(=O)Nc2ccc([C@H]3CNCCO3)cc2)cn1 [Example 52, (S)-1-(3-cyanopyrazin-2-yl)-N-(4-(morpholin-2-yl)phenyl)-1H-pyrazole-4-carboxamide hydrochloride]
Rat TAAR1
  Ki: 0.0451 µM
Mouse TAAR1
  Ki: 0.0179 µM

## O=C(Nc1ccc([C@H]2CNCCO2)cc1)c1cnn(-c2cc(C3CC3)ncn2)c1 [Example 56, (S)-1-(6-cyclopropylpyrimidin-4-yl)-N-(4-(morpholin-2-yl)phenyl)-1H-pyrazole-4-carboxamide hydrochloride]
Rat TAAR1
  Ki: 0.0052 µM
Mouse TAAR1
  Ki: 0.0051 µM

## O=C(Nc1ccc([C@H]2CNCCO2)cc1)c1cnn(-c2nc(C(F)(F)F)cs2)c1 [Example 57, (S)—N-(4-(morpholin-2-yl)phenyl)-1-(4-(trifluoromethyl)thiazol-2-yl)-1H-pyrazole-4-carboxamide hydrochloride]
Rat TAAR1
  Ki: 0.0011 µM
Mouse TAAR1
  Ki: 0.0019 µM

## CCN(C[C@H]1COC(N)=N1)c1ccccc1 [reference compound]
Rat TAAR1; read-out: dissociation constant (Kd) of the radioligand, rat TAAR1 membranes, saturation curve
  Kd: ~2.3 nM
Mouse TAAR1; read-out: dissociation constant (Kd) of the radioligand, mouse TAAR1 membranes, saturation curve
  Kd: ~0.7 nM

Source: patent US9487501B2, “Pyrazole carboxamide compounds and uses thereof” (Hoffmann-La Roche Inc., priority 2012, dated 2016)
